Test results: patent US8088731B2, “Use of GLP-1 compound for treatment of critically ill patients” (Novo Nordisk A/S, priority 2002, dated 2012)

Columns and labels:
[1] = system: subjects with type 2 diabetes; assay: 12 week randomised, double-blind, dose-response, placebo controlled and open label glimepiride study of glucose lowering effect; assay type: in vivo, human; conditions: 12 weeks
Method: The dose of glimepiride was adjusted during the first 4 weeks based on glycaemic control with a treatment target of fasting serum glucose <7 mM, with a dose not exceeding 4 mg/day. Results

[2] = system: subjects with type 2 diabetes; assay: Graded glucose infusion crossover study of beta cell sensitivity to glucose after a single dose; assay type: in vivo, human; conditions: single dose 7.5 μg/kg
Method: Using a graded glucose infusion protocol with plasma glucose levels matched over the range of 5 to 12 mmol/L beta cell sensitivity was assessed. Insulin secretion rates (ISR) were estimated by deconvolution of circulating C-peptide concentrations. Findings were compared to responses of 10 healthy, nondiabetic volunteers to the same glucose infusion protocol.

SMILES | mean serum fasting glucose decrease compared with placebo ([1]; 0.60 mg once daily s.c., p<0.0001) [mmol/L] | mean decrease compared to placebo in HbA1c ([1]; 0.60 mg once daily s.c., p=0.0002) [percentage points] | mean decrease compared to placebo in HbA1c ([1]; 0.75 mg once daily s.c., p<0.0001) [percentage points] | mean serum fasting glucose decrease compared with placebo ([1]; 0.75 mg once daily s.c., p=0.0003) [mmol/L] | subjects that reported any hypoglycaemic episode ([1]; two highest dose groups (0.60 and 0.75 mg)) [%] | C-peptide levels compared to placebo ([2]; type 2 diabetes subjects) | hypoglycemic events ([2]; type 2 diabetes subjects) | insulin levels compared to placebo ([2]; type 2 diabetes subjects) | slope of ISR vs. plasma glucose ([2]; type 2 diabetes subjects, graded glucose infusion, p<0.014 vs placebo) | insulin secretion at low glucose levels ([2]; versus non-diabetic controls) | subjects that reported any hypoglycaemic episode ([1]; glimepiride group) [%] | reduction compared to placebo on FSG ([1]; glimepiride p.o. once daily, open-label, titrated, not exceeding 4 mg/day) [mM] | reduction compared to placebo on HbA1c ([1]; glimepiride p.o. once daily, open-label, titrated, not exceeding 4 mg/day, p=0.0001) [%]
CCCCCCCCCCCCCCCC(=O)N[C@@H](CCC(=O)NCCCC[C@H](NC(=O)[C@H](C)NC(=O)[C@H](C)NC(=O)[C@H](CCC(N)=O)NC(=O)CNC(=O)[C@H](CCC(=O)O)NC(=O)[C@H](CC(C)C)NC(=O)[C@H](Cc1ccc(O)cc1)NC(=O)[C@H](CO)NC(=O)[C@H](CO)NC(=O)[C@@H](NC(=O)[C@H](CC(=O)O)NC(=O)[C@H](CO)NC(=O)[C@@H](NC(=O)[C@H](Cc1ccccc1)NC(=O)[C@@H](NC(=O)CNC(=O)[C@H](CCC(=O)O)NC(=O)[C@H](C)NC(=O)[C@@H](N)Cc1cnc[nH]1)[C@@H](C)O)[C@@H](C)O)C(C)C)C(=O)N[C@@H](CCC(=O)O)C(=O)N[C@@H](Cc1ccccc1)C(=O)N[C@H](C(=O)N[C@@H](C)C(=O)N[C@@H](Cc1c[nH]c2ccccc12)C(=O)N[C@@H](CC(C)C)C(=O)N[C@H](C(=O)N[C@@H](CCCNC(=N)N)C(=O)NCC(=O)N[C@@H](CCCNC(=N)N)C(=O)NCC(=O)O)C(C)C)[C@@H](C)CC)C(=O)O [NN2211, Arg^34, Lys^26(N^ε-(γ-Glu(N^α-hexadecanoyl)))-GLP-1(7-37)] | 2.14 | 0.70 | 0.75 | 1.82 | 7 | increased | No hypoglycemic events occurred | increased | 1.26±0.36 pmol*L/(min*mmol*kg) | comparable to the non-diabetic controls |  |  | 
CCC1=C(C)CN(C(=O)NCCc2ccc(S(=O)(=O)NC(=O)N[C@H]3CC[C@H](C)CC3)cc2)C1=O [glimepiride, reference compound] |  |  |  |  |  |  |  |  |  |  | 31 | -2.6 | 0.74
